The assay addresses BRD4-BD1 (44-164) (Homo sapiens (Human), UniProt O60885). Nature of the assay: Alphascreen binding assay BRD4-BD1. The note with it: BRD4(1) H4; read-out: Biochemical activity (IC50 μM) BRD4(1) H4. The procedure, abridged: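 AlphaScreen signal (nickel acceptor, streptavidin donor beads, 7.5 µg/ml each, read 30 min after addition) reports displacement of biotin-H4 K5/K8/K12/K16-acetyl peptide from His-BRD4 BD1 (44-164) or tandem BD12 (1-477).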

We go through 34 molecules from US10519177B2, “Heterocyclic compounds and uses thereof” (Plexxikon Inc., priority 2013, dated 2019).

As usually defined, the IC50 is the concentration that inhibits the measured activity by half. Consider `Cc1noc(C)c1-c1cnc2c(-c3cnn(C)c3)cn(S(=O)(=O)C3CCCC3)c2c1` [P-0112, 4-[1-cyclopentyl-sulfonyl-3-(1-methyl-pyrazol-4-yl)pyrrolo[3,2-b]pyridin-6-yl]-3,5-dimethyl-isoxazole], for which the IC50 is under 1 µM. Then `Cc1noc(C)c1-c1cnc2c(c1)c(CC1CCN(C(=O)c3ccccc3)CC1)cn2C` [P-0115, [4-[[5-(3,5-dimethylisoxazol-4-yl)-1-methyl-pyrrolo[2,3-b]pyridin-3-yl]methyl]-1-piperidyl]-phenyl-methanone], with under 1 µM; and `CCNC(=O)N1CCC(Cc2cn(C)c3ncc(-c4c(C)noc4C)cc23)CC1` [P-0117, 4-[[5-(3,5-dimethylisoxazol-4-yl)-1-methyl-pyrrolo[2,3-b]pyridin-3-yl]methyl]-N-ethyl-piperidine-1-carboxamide], with under 1 µM; and `CCC(c1cn(C)c2ncc(-c3c(C)noc3C)cc12)C1CCC(F)(F)CC1` (stereo not shown) [P-0118, 4-[3-[1-(4,4-difluorocyclohexyl)propyl]-1-methyl-pyrrolo[2,3-b]pyridin-5-yl]-3,5-dimethyl-isoxazole], with under 1 µM. As for `CC(=O)N1CCC(Cc2cn(C)c3ncc(-c4c(C)noc4C)cc23)CC1` [P-0120, 1-[4-[[5-(3,5-dimethylisoxazol-4-yl)-1-methyl-pyrrolo[2,3-b]pyridin-3-yl]methyl]-1-piperidyl]ethanone], the IC50 is under 1 µM.

As to `Cc1noc(C)c1-c1cnc2c(-c3cnn(C)c3)cn(S(=O)(=O)c3ccccc3F)c2c1` [P-0121, 4-[1-(2-fluorophenyl)sulfonyl-3-(1-methyl-pyrazol-4-yl)pyrrolo[3,2-b]pyridin-6-yl]-3,5-dimethyl-isoxazole], the IC50 was under 1 µM. In the case of `Cc1noc(C)c1-c1cnc2c(-c3cnn(C)c3)cn(S(=O)(=O)c3cccc(F)c3)c2c1` [P-0122, 4-[1-(3-fluorophenyl)sulfonyl-3-(1-methyl-pyrazol-4-yl)pyrrolo[3,2-b]pyridin-6-yl]-3,5-dimethyl-isoxazole] it was under 1 µM. As to `Cc1noc(C)c1-c1cnc2c(-c3cnn(C)c3)cn(S(=O)(=O)c3ccc(F)cc3)c2c1` [P-0123, 4-[1-(4-fluorophenyl)sulfonyl-3-(1-methyl-pyrazol-4-yl)pyrrolo[3,2-b]pyridin-6-yl]-3,5-dimethyl-isoxazole], the IC50 is under 1 µM.

Regarding `CCn1cc(-c2cn(S(=O)(=O)c3ccccc3)c3cc(-c4c(C)noc4C)cnc23)cn1` [P-0124, 4-[1-(benzenesulfonyl)-3-(1-ethylpyrazol-4-yl)pyrrolo[3,2-b]pyridin-6-yl]-3,5-dimethyl-isoxazole], the IC50 was under 1 µM. In the case of `CCn1cc(-c2cn(S(=O)(=O)c3ccccc3F)c3cc(-c4c(C)noc4C)cnc23)cn1` [P-0125, 4-[3-(1-ethylpyrazol-4-yl)-1-(2-fluorophenyl)sulfonyl-pyrrolo[3,2-b]pyridin-6-yl]-3,5-dimethyl-isoxazole] it was under 1 µM; in that of `C=CCn1cc(-c2cn(S(=O)(=O)c3ccccc3)c3cc(-c4c(C)noc4C)cnc23)cn1` [P-0126, 4-[3-(1-allylpyrazol-4-yl)-1-(benzenesulfonyl)pyrrolo[3,2-b]pyridin-6-yl]-3,5-dimethyl-isoxazole], under 1 µM. Regarding `C=CCn1cc(-c2cn(S(=O)(=O)c3ccccc3F)c3cc(-c4c(C)noc4C)cnc23)cn1` [P-0127, 4-[3-(1-allylpyrazol-4-yl)-1-(2-fluorophenyl)sulfonyl-pyrrolo[3,2-b]pyridin-6-yl]-3,5-dimethyl-isoxazole], the IC50 was under 1 µM.

Turning to `C=CCn1cc(-c2cn(S(=O)(=O)C3CCCC3)c3cc(-c4c(C)noc4C)cnc23)cn1` [P-0128, 4-[3-(1-allylpyrazol-4-yl)-1-cyclopentyl-sulfonyl-pyrrolo[3,2-b]pyridin-6-yl]-3,5-dimethyl-isoxazole], the IC50 was under 1 µM. Then `C=CCn1cc(-c2cn(S(=O)(=O)CCC(F)(F)F)c3cc(-c4c(C)noc4C)cnc23)cn1` [P-0129, 4-[3-(1-allylpyrazol-4-yl)-1-(3,3,3-trifluoro-propylsulfonyl)pyrrolo[3,2-b]pyridin-6-yl]-3,5-dimethyl-isoxazole], with under 1 µM.

Regarding `Cc1noc(C)c1-c1cnc2c(-c3cnn(C(F)F)c3)cn(S(=O)(=O)c3ccccc3)c2c1` [P-0131, 4-[1-(benzenesulfonyl)-3-[1-(difluoromethyl)pyrazol-4-yl]pyrrolo[3,2-b]pyridin-6-yl]-3,5-dimethyl-isoxazole], the IC50 was under 1 µM. Regarding `Cc1noc(C)c1-c1cnc2c(-c3cnn(C(F)F)c3)cn(S(=O)(=O)c3ccccc3F)c2c1` [P-0132, 4-[3-[1-(difluoromethyl)pyrazol-4-yl]-1-(2-fluorophenyl)sulfonyl-pyrrolo[3,2-b]pyridin-6-yl]-3,5-dimethyl-isoxazole], the IC50 was under 1 µM. `Cc1noc(C)c1-c1cnc2c(-c3cnn(C(F)F)c3)cn(S(=O)(=O)C3CCCC3)c2c1` [P-0133, 4-[1-cyclopentylsulfonyl-3-[1-(difluoromethyl)pyrazol-4-yl]pyrrolo[3,2-b]pyridin-6-yl]-3,5-dimethyl-isoxazole]: the IC50 was under 1 µM.

For `Cc1noc(C)c1-c1cnc2c(-c3cnn(C(F)F)c3)cn(S(=O)(=O)C3CCC3)c2c1` [P-0134, 4-[1-cyclobutyl-sulfonyl-3-[1-(difluoro-methyl)pyrazol-4-yl]pyrrolo[3,2-b]pyridin-6-yl]-3,5-dimethyl-isoxazole], the IC50 was under 1 µM. With `CCCS(=O)(=O)n1cc(-c2cnn(C(F)F)c2)c2ncc(-c3c(C)noc3C)cc21` [P-0135, 4-[3-[1-(difluoro-methyl)pyrazol-4-yl]-1-propylsulfonyl-pyrrolo[3,2-b]pyridin-6-yl]-3,5-dimethyl-isoxazole], the IC50 was under 1 µM. As to `Cc1noc(C)c1-c1cnc2c(-c3cnn(C(F)F)c3)cn(S(=O)(=O)CCC(F)(F)F)c2c1` [P-0136, 4-[3-[1-(difluoro-methyl)pyrazol-4-yl]-1-(3,3,3-trifluoro-propylsulfonyl)pyrrolo[3,2-b]pyridin-6-yl]-3,5-dimethyl-isoxazole], the IC50 was under 1 µM. Take `C=CCn1cc(-c2cn(S(=O)(=O)CCC)c3cc(-c4c(C)noc4C)cnc23)cn1` [P-0137, 4-[3-(1-allylpyrazol-4-yl)-1-propylsulfonyl-pyrrolo[3,2-b]pyridin-6-yl]-3,5-dimethyl-isoxazole]: the IC50 was under 1 µM. As to `C=CCn1cc(-c2cn(S(=O)(=O)C(C)CC)c3cc(-c4c(C)noc4C)cnc23)cn1` (stereo not shown) [P-0138, 4-[3-(1-allylpyrazol-4-yl)-1-sec-butyl-sulfonyl-pyrrolo[3,2-b]pyridin-6-yl]-3,5-dimethyl-isoxazole], the IC50 was under 1 µM.

`C=CCn1cc(-c2cn(S(=O)(=O)C3CC3)c3cc(-c4c(C)noc4C)cnc23)cn1` [P-0139, 4-[3-(1-allylpyrazol-4-yl)-1-cyclopropyl-sulfonyl-pyrrolo[3,2-b]pyridin-6-yl]-3,5-dimethyl-isoxazole]: the IC50 is under 1 µM. In the case of `C=CCn1cc(-c2cn(S(=O)(=O)CC3CC3)c3cc(-c4c(C)noc4C)cnc23)cn1` [P-0140, 4-[3-(1-allylpyrazol-4-yl)-1-(cyclopropyl-methylsulfonyl)pyrrolo[3,2-b]pyridin-6-yl]-3,5-dimethyl-isoxazole] it was under 1 µM; in that of `Cc1noc(C)c1-c1cnc2[nH]cc(Sc3cccc(F)c3)c2c1` [P-0141, 4-[3-(3-fluorophenyl)sulfanyl-1H-pyrrolo[2,3-b]pyridin-5-yl]-3,5-dimethyl-isoxazole], under 1 µM; in that of `Cc1noc(C)c1-c1cnc2[nH]cc([S+]([O-])c3cccc(F)c3)c2c1` (stereo not shown) [P-0142, 4-[3-(3-fluorophenyl)sulfinyl-1H-pyrrolo[2,3-b]pyridin-5-yl]-3,5-dimethyl-isoxazole], under 1 µM. Then `Cc1noc(C)c1-c1cnc2[nH]cc(S(=O)(=O)c3cccc(F)c3)c2c1` [P-0143, 4-[3-(3-fluorophenyl)sulfonyl-1H-pyrrolo[2,3-b]pyridin-5-yl]-3,5-dimethyl-isoxazole], with under 1 µM; and `Cc1noc(C)c1-c1cnc2[nH]cc(Sc3ccccc3)c2c1` [P-0144, 3,5-dimethyl-4-(3-phenylsulfanyl-1H-pyrrolo[2,3-b]pyridin-5-yl)isoxazole], with under 1 µM. On to `Cc1noc(C)c1-c1cnc2[nH]cc(S(=O)(=O)c3ccccc3)c2c1` [P-0145, 4-[3-(benzenesulfonyl)-1H-pyrrolo[2,3-b]pyridin-5-yl]-3,5-dimethyl-isoxazole], for which the IC50 was under 1 µM. As for `Cc1noc(C)c1-c1cnc2c(-c3cnn(CC(F)(F)F)c3)cn(S(=O)(=O)c3ccccc3)c2c1` [P-0146, 4-[1-(benzenesulfonyl)-3-[1-(2,2,2-trifluoroethyl)pyrazol-4-yl]pyrrolo[3,2-b]pyridin-6-yl]-3,5-dimethyl-isoxazole], the concentration for half-maximal inhibition (IC50) was under 1 µM. In the case of `COCCn1cc(-c2cn(S(=O)(=O)c3ccccc3)c3cc(-c4c(C)noc4C)cnc23)cn1` [P-0147, 4-[1-(benzenesulfonyl)-3-[1-(2-methoxyethyl)pyrazol-4-yl]pyrrolo[3,2-b]pyridin-6-yl]-3,5-dimethyl-isoxazole] it was under 1 µM; in that of `Cc1noc(C)c1-c1cnc2c(-c3cnn(C4CCOC4)c3)cn(S(=O)(=O)c3ccccc3)c2c1` (stereo not shown) [P-0148, 4-[1-(benzenesulfonyl)-3-(1-tetrahydrofuran-3-ylpyrazol-4-yl)pyrrolo[3,2-b]pyridin-6-yl]-3,5-dimethyl-isoxazole], under 1 µM. Then `Cc1noc(C)c1-c1cnc2c(-c3cnn(CC(F)(F)F)c3)cn(S(=O)(=O)C3CCCC3)c2c1` [P-0149, 4-[1-cyclopentyl-sulfonyl-3-[1-(2,2,2-trifluoroethyl)pyrazol-4-yl]pyrrolo[3,2-b]pyridin-6-yl]-3,5-dimethyl-isoxazole], with under 1 µM; and `CCCS(=O)(=O)n1cc(-c2cnn(CC(F)(F)F)c2)c2ncc(-c3c(C)noc3C)cc21` [P-0150, 3,5-dimethyl-4-[1-propylsulfonyl-3-[1-(2,2,2-trifluoroethyl)pyrazol-4-yl]pyrrolo[3,2-b]pyridin-6-yl]isoxazole], with under 1 µM.
